Test results from PubChem BioAssay AID248 (DTP/NCI, 2004).
Several values for one entry are separate records, joined by “and”; a condition that tells them apart may be missing. Equal values may be shown once. Toxic doses and inconclusive results are not listed. No stated cut-off is given here; in the data, active means T/C of 150% or more; inactive means T/C below 125%.

System: L1210 leukemia ip in BDF1 mice, survival T/C
Assay: NCI In Vivo Anticancer Drug Screen. Data for tumor model L1210 Leukemia (intraperitoneal) in B6D2F1 (BDF1) mice
Conditions: endpoint: mean survival time, higher = longer survival
Outline: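 Transplantable tumor model; survival measured in treated vs vehicle control mice. Value = treated/control.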

[1] = dose: 100.0 mg/kg/injection, schedule: Q01DX001 (ip), vehicle: saline
[2] = dose: 200.0 mg/kg/injection, schedule: Q01DX001 (ip), vehicle: saline
[3] = dose: 400.0 mg/kg/injection, schedule: Q01DX001 (ip), vehicle: saline
[4] = dose: 25.0 mg/kg/injection, schedule: Q01DX009 (ip), vehicle: Klucel (hydroxypropylcellulose) (HPC)
[5] = dose: 50.0 mg/kg/injection, schedule: Q01DX009 (ip), vehicle: Klucel (hydroxypropylcellulose) (HPC)
[6] = dose: 50.0 mg/kg/injection, schedule: Q04DX002 (ip), vehicle: saline
[7] = dose: 100.0 mg/kg/injection, schedule: Q04DX002 (ip), vehicle: saline
[8] = dose: 200.0 mg/kg/injection, schedule: Q04DX002 (ip), vehicle: saline
[9] = dose: 100.0 mg/kg/injection, schedule: Q01DX009 (ip), vehicle: Klucel (hydroxypropylcellulose) (HPC)
[10] = dose: 200.0 mg/kg/injection, schedule: Q01DX009 (ip), vehicle: Klucel (hydroxypropylcellulose) (HPC)
[11] = dose: 100.0 mg/kg/injection, schedule: Q01DX001 (ip), vehicle: Klucel (hydroxypropylcellulose) (HPC)
[12] = dose: 200.0 mg/kg/injection, schedule: Q01DX001 (ip), vehicle: Klucel (hydroxypropylcellulose) (HPC)
[13] = dose: 400.0 mg/kg/injection, schedule: Q01DX001 (ip), vehicle: Klucel (hydroxypropylcellulose) (HPC)

Measured: T/C

COC[P+](c1ccccc1)(c1ccccc1)c1ccccc1
inactive: dose: 1.25 mg/kg/injection, schedule: Q01DX001 (ip), vehicle: Klucel (hydroxypropylcellulose) (HPC) 96 % of control | dose: 1.25 mg/kg/injection, schedule: Q01DX009 (ip), vehicle: Klucel (hydroxypropylcellulose) (HPC) 90 % of control | dose: 2.5 mg/kg/injection, schedule: Q01DX001 (ip), vehicle: Klucel (hydroxypropylcellulose) (HPC) 105 % of control | dose: 2.5 mg/kg/injection, schedule: Q01DX009 (ip), vehicle: Klucel (hydroxypropylcellulose) (HPC) 92 % of control | dose: 5.0 mg/kg/injection, schedule: Q01DX001 (ip), vehicle: Klucel (hydroxypropylcellulose) (HPC) 97 % of control | dose: 5.0 mg/kg/injection, schedule: Q01DX009 (ip), vehicle: Klucel (hydroxypropylcellulose) (HPC) 96 % of control | dose: 10.0 mg/kg/injection, schedule: Q01DX001 (ip), vehicle: Klucel (hydroxypropylcellulose) (HPC) 100 % of control | dose: 10.0 mg/kg/injection, schedule: Q01DX009 (ip), vehicle: Klucel (hydroxypropylcellulose) (HPC) 113 % of control

CC1(C)CC(C)(c2ccc(-n3c(-c4ccccc4)nc4ccccc4c3=O)cc2)c2ccccc2S1 (configuration not stated)
inactive: [1] 91 % of control | [2] 91 % of control | [3] 87 % of control

c1ccc2c(N=NSc3ncnc4nc[nH]c34)c3ccccc3nc2c1
inactive: dose: 5.0 mg/kg/injection, schedule: Q01DX001 (ip), vehicle: carboxymethylcellulose (CMC) 105 % of control | dose: 10.0 mg/kg/injection, schedule: Q01DX001 (ip), vehicle: carboxymethylcellulose (CMC) 115 % of control | dose: 20.0 mg/kg/injection, schedule: Q01DX001 (ip), vehicle: carboxymethylcellulose (CMC) 98 % of control | dose: 40.0 mg/kg/injection, schedule: Q01DX001 (ip), vehicle: carboxymethylcellulose (CMC) 107 % of control

CC(C)=CC(=O)OC1C2C(C)C(=O)OC2C(O)C(C)C2C=CC(=O)C21C (configuration not stated)
inactive: dose: 6.25 mg/kg/injection, schedule: Q01DX009 (ip), vehicle: saline with Tween-80 95 % of control | dose: 12.5 mg/kg/injection, schedule: Q01DX009 (ip), vehicle: saline with Tween-80 97 % of control | [4] 97 % of control | dose: 25.0 mg/kg/injection, schedule: Q01DX009 (ip), vehicle: saline with Tween-80 103 % of control | dose: 25.0 mg/kg/injection, schedule: Q01DX009 (ip), vehicle: saline 93 % of control | [5] 94 % of control | dose: 50.0 mg/kg/injection, schedule: Q01DX009 (ip), vehicle: saline with Tween-80 103 % of control | dose: 50.0 mg/kg/injection, schedule: Q01DX009 (ip), vehicle: saline 100 % of control

C#CC(O)(c1ccccc1)c1ccccc1
inactive: [1] 103 % of control | [2] 107 % of control | [3] 100 % of control

Cc1ccc(C(=O)/C=C/c2ccccc2O)cc1
inactive: dose: 100.0 mg/kg/injection, schedule: Q01DX009 (ip), vehicle: saline with Tween-80 100 % of control | dose: 100.0 mg/kg/injection, schedule: Q04DX003 (ip), vehicle: saline with Tween-80 105 % of control | dose: 200.0 mg/kg/injection, schedule: Q01DX009 (ip), vehicle: saline with Tween-80 98 % of control | dose: 200.0 mg/kg/injection, schedule: Q04DX003 (ip), vehicle: saline with Tween-80 100 % of control | dose: 400.0 mg/kg/injection, schedule: Q01DX009 (ip), vehicle: saline with Tween-80 94 % of control | dose: 400.0 mg/kg/injection, schedule: Q04DX003 (ip), vehicle: saline with Tween-80 98 % of control

C=CCC1(C(=C)C)C(=O)NC(=O)NC1=O
inactive: dose: 75.0 mg/kg/injection, schedule: Q01DX001 (ip), vehicle: carboxymethylcellulose (CMC) 97 % of control | dose: 150.0 mg/kg/injection, schedule: Q01DX001 (ip), vehicle: carboxymethylcellulose (CMC) 93 % of control | dose: 300.0 mg/kg/injection, schedule: Q01DX001 (ip), vehicle: carboxymethylcellulose (CMC) 111 % of control

CC/C(C[n+]1ccccc1)=N\Nc1ccc([N+](=O)[O-])cc1[N+](=O)[O-]
inactive: dose: 5.0 mg/kg/injection, schedule: Q01DX001 (ip), vehicle: acetone 102 % of control | dose: 10.0 mg/kg/injection, schedule: Q01DX001 (ip), vehicle: acetone 100 % of control | dose: 20.0 mg/kg/injection, schedule: Q01DX001 (ip), vehicle: acetone 103 % of control | dose: 20.0 mg/kg/injection, schedule: Q04DX003 (ip), vehicle: saline 103 % of control | dose: 40.0 mg/kg/injection, schedule: Q01DX001 (ip), vehicle: acetone 108 % of control | dose: 40.0 mg/kg/injection, schedule: Q04DX003 (ip), vehicle: saline 95 % of control | dose: 80.0 mg/kg/injection, schedule: Q01DX001 (ip), vehicle: acetone 100 % of control

Cn1c2c(c3ccccc3c1=O)C(=O)c1ccccc1-2
inactive: dose: 50.0 mg/kg/injection, schedule: Q01DX001 (ip), vehicle: carboxymethylcellulose (CMC) 94 % of control | dose: 100.0 mg/kg/injection, schedule: Q01DX001 (ip), vehicle: carboxymethylcellulose (CMC) 94 % of control | dose: 200.0 mg/kg/injection, schedule: Q01DX001 (ip), vehicle: carboxymethylcellulose (CMC) 91 % of control | dose: 400.0 mg/kg/injection, schedule: Q01DX001 (ip), vehicle: carboxymethylcellulose (CMC) 91 % of control

CCn1cc(C(=O)O)c(=O)c2cccc(OC)c21
inactive: [6] 86 % of control | [7] 115 % of control | [8] 100 % of control

CCCCCC(Oc1ccc(Cl)cc1C)C(=O)OCC (configuration not stated)
inactive: dose: 100.0 mg/kg/injection, schedule: Q04DX002 (ip), vehicle: Klucel (hydroxypropylcellulose) (HPC) 90 % of control | dose: 200.0 mg/kg/injection, schedule: Q04DX002 (ip), vehicle: Klucel (hydroxypropylcellulose) (HPC) 87 % of control | dose: 400.0 mg/kg/injection, schedule: Q04DX002 (ip), vehicle: Klucel (hydroxypropylcellulose) (HPC) 107 % of control

Cc1cc(NC(=O)C(=O)Nc2cc(C)on2)no1
inactive: [9] 93 % of control | [10] 100 % of control | dose: 400.0 mg/kg/injection, schedule: Q01DX009 (ip), vehicle: Klucel (hydroxypropylcellulose) (HPC) 93 % of control

O=C(NC(=O)C(Cl)Cl)Nc1cccc2c1-c1ccccc1C2
inactive: [11] 94 % of control | [9] 108 % of control | dose: 100.0 mg/kg/injection, schedule: Q04DX003 (ip), vehicle: Klucel (hydroxypropylcellulose) (HPC) 88 % of control | [12] 97 % of control | [10] 100 % of control | dose: 200.0 mg/kg/injection, schedule: Q04DX003 (ip), vehicle: Klucel (hydroxypropylcellulose) (HPC) 92 % of control | [13] 92 % of control | dose: 400.0 mg/kg/injection, schedule: Q04DX003 (ip), vehicle: Klucel (hydroxypropylcellulose) (HPC) 93 % of control

c1ccc2cc(C3OCCCO3)ccc2c1
inactive: [11] 94 % of control | [12] 100 % of control | [13] 100 % of control

O=C1NC(=O)C2(CCCCC2)N1
inactive: dose: 6.25 mg/kg/injection, schedule: Q04DX003 (ip), vehicle: Klucel (hydroxypropylcellulose) (HPC) 94 % of control | dose: 12.5 mg/kg/injection, schedule: Q01DX009 (ip), vehicle: Klucel (hydroxypropylcellulose) (HPC) 95 % of control | dose: 12.5 mg/kg/injection, schedule: Q04DX003 (ip), vehicle: Klucel (hydroxypropylcellulose) (HPC) 94 % of control | [4] 96 % of control | dose: 25.0 mg/kg/injection, schedule: Q04DX003 (ip), vehicle: Klucel (hydroxypropylcellulose) (HPC) 87 % of control and 97 % of control | [5] 100 % of control | dose: 50.0 mg/kg/injection, schedule: Q04DX003 (ip), vehicle: Klucel (hydroxypropylcellulose) (HPC) 96 % of control and 101 % of control | dose: 75.0 mg/kg/injection, schedule: Q01DX009 (ip), vehicle: Klucel (hydroxypropylcellulose) (HPC) 102 % of control

C[n+]1ccccc1NC(=O)c1ccc(C(=O)Nc2cccc[n+]2C)cc1
inactive: dose: 7.5 mg/kg/injection, schedule: Q01DX Z (ip), vehicle: saline 98 % of control | dose: 15.0 mg/kg/injection, schedule: Q01DX Z (ip), vehicle: saline 100 % of control | dose: 30.0 mg/kg/injection, schedule: Q01DX Z (ip), vehicle: saline 87 % of control | dose: 120.0 mg/kg/injection, schedule: Q01DX Z (ip), vehicle: saline 87 % of control | dose: 240.0 mg/kg/injection, schedule: Q01DX Z (ip), vehicle: saline 91 % of control

CCOC(=O)NN(C(=O)OCC)C1COCCO1 (configuration not stated)
inactive: [6] 98 % of control | [7] 103 % of control | [8] 103 % of control
